Laboratory results reported in patent US12427134B2, “Methods of reducing the risk of cardiovascular events in a subject with atrial fibrillation and/or atrial flutter” (priority 2019, dated 2025).

Tested on: hypertriglyceridemic patients with cardiovascular disease or at high risk for cardiovascular disease
Test: REDUCE-IT: treatment-emergent adverse events and serious adverse events (safety population)
Protocol: Specification of Variables and Procedures: Safety assessments included adverse events, clinical laboratory measurements (chemistry, hematology), 12-lead ECGs, vital signs (systolic and diastolic blood pressure, heart rate, respiratory rate, and body temperature), weight, waist circumference, and physical examinations as per Study Procedures in Table 1. […] All laboratory test results were evaluated by the investigator as to their clinical significance. Any observations at physical examinations or laboratory values considered by the investigator to be clinically significant were considered an adverse event.
An adverse event can therefore be any unfavorable and/or unintended sign (including an abnormal laboratory finding), symptom, or disease temporally associated with the use of an investigational medication product, whether or not related to the investigational medication product. All adverse events, including observed or volunteered problems, complaints, or symptoms, were recorded on the appropriate CRF. Each adverse event was evaluated for duration, intensity, and causal relationship with the study medication or other factors.
Adverse events, which included clinical laboratory test variables, were monitored from the time of informed consent until study participation was complete. Patients were instructed to report any adverse event that they experienced to the investigator. Beginning with Visit 2, investigators assessed for adverse events at each visit and recorded the event on the appropriate adverse event CRF.
Causality Assessment: The relationship of an adverse event to the administration of the study drug was assessed according to the following definitions: • No (unrelated, not related, no relation)—The time course between the administration of study drug and the occurrence or worsening of the adverse event rules out a causal relationship and another cause (concomitant drugs, therapies, complications, etc.) is suspected. • Yes (related, probably related, possibly related)—The time course between the administration of study drug and the occurrence or worsening of the adverse event is consistent with a causal relationship and no other cause (concomitant drugs, therapies, complications, etc.) can be identified.
Serious Adverse Events: A serious adverse event (SAE) is defined as an adverse event that meets any of the following criteria: • Results in death; • Is life-threatening—The term “life-threatening” in the definition of “serious” refers to an event in which the patient was at risk of death at the time of the event. […] Important medical events that may not result in death, be life threatening, or require hospitalization were considered an SAE when, based upon appropriate medical judgment, they may have jeopardized the patient and may have required medical or surgical intervention to prevent one of the outcomes listed above.
Analysis of Safety: All analyses of safety were conducted on the safety population, which was defined as all randomized patients. The safety assessment was based on the frequency of adverse events, physical exams, vital signs and safety laboratory tests. AEs with new onset during the study between the initiation of study drug and 30 days after the last dose of study drug for each patient was considered treatment-emergent (TEAEs). This included any AE with onset prior to initiation of study drug and increased severity after the treatment initiation.
This included overall incidence rates (regardless of severity and relationship to study drug), and incidence rates for moderate or severe adverse events. A summary of SAEs and adverse events leading to early discontinuation (for ≥30 days) were presented through data listings. Patients who restarted study drug were included in the summary of AEs leading to discontinuation.

Structure (SMILES): CC/C=C\C/C=C\C/C=C\C/C=C\C/C=C\CCCC(=O)OCC [AMR101, eicosapentaenoic acid ethyl ester]
- TEAE: Respiratory, thoracic, and mediastinal disorders, % (Region Westernized (N = 2906)): (30.9) %
- Diarrhea leading to study drug withdrawal, patients (Safety population): 1.1%
- Nausea leading to study drug withdrawal, patients (Safety population): 0.6%
- Patients with SAE leading to study drug withdrawal (Safety population): 2.2%
- Patients with TEAE leading to study drug withdrawal (Safety population): 7.9%
- Patients with at least one SAE (Safety population): 30.6%
- Patients with at least one TEAE (Safety population): 81.8%
- Patients with serious TEAE leading to death (Safety population): 2.3%
- SAE acute kidney injury, patients (Safety population): 1.1
- SAE angina pectoris, patients (Safety population): 1.2%
- SAE chest pain, patients (Safety population): 1.6%
- SAE class GI disorders, patients (Safety population): 4.7%
- SAE class cardiac disorders, patients (Safety population): 4.7%
- SAE class musculoskeletal and connective tissue disorders, patients (Safety population): 4.6%
- SAE class neoplasms benign, malignant, and unspecified, patients (Safety population): 5.4%
- SAE non-cardiac chest pain, patients (Safety population): 1.2%
- SAE osteoarthritis, patients (Safety population): 2.0%
- Serious TEAE (Safety population): 1252 (30.6%) n (%)
- Serious TEAE Leading to Death (Safety population): 94 (2.3%) n (%)
- Serious TEAE Leading to Withdrawal of Study Drug (Safety population): 88 (2.2%) n (%)
- Serious TEAE: Pneumonia (Safety population): 105 (2.6%) n (%)
- Serious adverse event pneumonia, patients (Safety population): 2.6%
- Serious anemia, patients (Safety population): 0.5%
- Severe TEAE acute kidney injury, patients (Safety population): 0.7%
- Severe TEAE chest pain, patients (Safety population): 0.7%
- Severe TEAE osteoarthritis, patients (Safety population): 0.8%
- Severe TEAE pneumonia, patients (Safety population): 1.5%
- Severe TEAE, patients with at least one (Safety population): 19.7%
- Study drug-related SAE, patients with at least one (Safety population): 0.2%
- Study drug-related TEAE class GI disorders, patients (Safety population): 7.4%
- Study drug-related TEAE diarrhea, patients (Safety population): 2.7%
- Study drug-related TEAE leading to study drug withdrawal, patients (Safety population): 3.4%
- Study drug-related TEAE, patients with at least one (Safety population): 12.6%
- Study drug-related diarrhea leading to study drug withdrawal, patients (Safety population): 1.0%
- TEAE Leading to Withdrawal of Study Drug (Safety population): 321 (7.9%) n (%)
- TEAE anemia, patients (Safety population): 4.7%
- TEAE atrial fibrillation, patients (Safety population): 5.3%
- TEAE class GI disorders leading to study drug withdrawal, patients (Safety population): 3.6%
- TEAE class general disorders and administration site conditions, patients (Safety population): 25.2%
- TEAE class musculoskeletal and connective tissue disorders, patients (Safety population): 35.9%
- TEAE class nervous system disorders, patients (Safety population): 24.6%
- TEAE constipation, patients (Safety population): 5.4%
- TEAE diarrhea, patients (Safety population): 9%
- TEAE gastrointestinal disorders, patients (Safety population): 33.0%
- TEAE of special interest: abnormal glucose control, patients (Safety population): 15.2%
- TEAE of special interest: hepatic disorders, patients (Safety population): 5.4%
- TEAE peripheral edema, patients (Safety population): 6.5%
- TEAE: Anemia (Safety population): 191 (4.7%) n (%)
- TEAE: Angina pectoris (Safety population): 200 (4.9%) n (%)
- TEAE: Arthralgia (Safety population): 313 (7.7%) n (%)
- TEAE: Atrial fibrillation (Safety population): 215 (5.3%) n (%)
- TEAE: Back pain (Safety population): 335 (8.2%) n (%)
- TEAE: Bronchitis (Safety population): 306 (7.5%) n (%)
- TEAE: Cataract (Safety population): 233 (5.7%) n (%)
- TEAE: Chest pain (Safety population): 273 (6.7%) n (%)
- TEAE: Constipation (Safety population): 221 (5.4%) n (%)
- TEAE: Cough (Safety population): 241 (5.9%) n (%)
- TEAE: Diarrhea (Safety population): 367 (9.0%) n (%)
- TEAE: Dizziness (Safety population): 235 (5.7%) n (%)
- TEAE: Dyspnea (Safety population): 254 (6.2%) n (%)
- TEAE: Fatigue (Safety population): 228 (5.6%) n (%)
- TEAE: Gastroesophageal Reflux Disease (Safety population): 124 (3.0%) n (%)
- TEAE: Gastrointestinal disorders (Safety population): 1350 (33.0%) n (%)
- TEAE: Hypertension (Safety population): 320 (7.8%) n (%)
- TEAE: Influenza (Safety population): 263 (6.4%) n (%)
- TEAE: Nasopharyngitis (Safety population): 314 (7.7%) n (%)
- TEAE: Nausea (Safety population): 190 (4.6%) n (%)
- TEAE: Osteoarthritis (Safety population): 241 (5.9%) n (%)
- TEAE: Pain in extremity (Safety population): 235 (5.7%) n (%)
- TEAE: Peripheral edema (Safety population): 267 (6.5%) n (%)
- TEAE: Pneumonia (Safety population): 263 (6.4%) n (%)
- TEAE: Upper respiratory tract infection (Safety population): 312 (7.6%) n (%)
- TEAE: Urinary tract infection (Safety population): 253 (6.2%) n (%)
- TEAE of special interest: Hepatic disorders, % (Safety population N = 4089, P-value 0.3180): (5.4) %
- TEAE of special interest: Abnormal glucose control, % (Safety population N = 4089, P-value 0.8059): (15.2) %
- CEC-adjudicated CV deaths (excluding deaths with undetermined cause), % (Safety population, N = 4089): (3.4) %
- CEC-adjudicated Deaths with undetermined cause, % (Safety population, N = 4089): (0.9) %
- CEC-adjudicated Non-CV deaths, % (Safety population, N = 4089): (2.4) %
- CEC-adjudicated deaths: Total mortality, % (Safety population, N = 4089): (6.7) %
- Patients with at least 1 TEAE, % (Safety population, N = 4089): (81.8) %
- Patients with at least 1 serious TEAE, % patients (Safety population, N = 4089): (30.6) %
- Patients with at least 1 serious TEAE, n patients (Safety population, N = 4089): 1252
- Patients with at least 1 severe TEAE, % (Safety population, N = 4089): (19.7) %
- Patients with at least 1 study drug-related TEAE leading to study drug withdrawal, % patients (Safety population, N = 4089): (3.4) %
- Patients with at least 1 study drug-related TEAE leading to study drug withdrawal, n patients (Safety population, N = 4089): 139
- Patients with at least 1 study drug-related TEAE, % (Safety population, N = 4089): (12.6) %
- Serious TEAE Leading to Death, % (Safety population, N = 4089): (2.3) %
- Serious TEAE Leading to Withdrawal of Study Drug, % (Safety population, N = 4089): (2.2) %
- Serious TEAE, % (Safety population, N = 4089): (30.6) %
- Serious adverse event - Acute kidney injury, % patients (Safety population, N = 4089): (1.1) %
- Serious adverse event - Acute kidney injury, n patients (Safety population, N = 4089): 47
- Serious adverse event - Acute respiratory failure, % patients (Safety population, N = 4089): (0.5) %
- Serious adverse event - Acute respiratory failure, n patients (Safety population, N = 4089): 19
- Serious adverse event - Anemia, % patients (Safety population, N = 4089): (0.5) %
